The values below come from patent US11155539B2, “4-pyridinylmethyl-morpholine derivatives and the use thereof as medicament” (Boehringer Ingelheim International GmbH, priority 2018, dated 2021).

One assay deals with T1, NMDA NR1/NR2B receptor (Homo sapiens, UniProt Q05586+Q13224).
T1 construct: host or cells: HEK293, tetracycline-inducible expression
Briefly: In vitro NMDA NR1/NR2B cell assay (FLIPR, intracellular calcium induced by glycine/glutamate). It counts as cell-based. Particulars: HEK293 cells expressing NMDA NR1/NR2B; 20 μM glycine, 1 μM glutamate; read-out: IC50 (in vitro NR2B affinity, FLIPR assay). The gist of the method:
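HEK293 cells with tetracycline-induced NR1/NR2B, induced 48 h, loaded with Fluo-8 for 60 min at room temperature, stimulated with 20 μM glycine plus 1 μM glutamate (final) in HEPES buffer pH 7.4. Compound added 2 min later at 0.9% DMSO; fluorescence at ~5 min normalised to DMSO and 1 μM reference NAM controls, IC50 by 4-parameter fit.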

The target in a further assay is Nav1.6 (Homo sapiens, UniProt Q9UQD0). Briefly: Nav 1.6 inhibition, IonWorks Quattro electrophysiology. Particulars: for inhibition at 1 µM / inhibition at 5 µM: normalized to vehicle control (0%) and maximal inhibition control (100%). It is filed as cell-based. The gist of the method: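 Human Nav1.6 currents recorded on IonWorks Quattro with amphotericin B (200 μg/ml) perforated access; compounds at final 1 and 5 μM in 0.3% DMSO. Cells held at −120 mV, prepulsed to 0 mV for 2500 ms, 10 ms recovery at −120 mV, then 20 ms test pulse to 0 mV; values are normalized percentage inhibition.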
Sequence of Nav1.6 (Q9UQD0 whole entry): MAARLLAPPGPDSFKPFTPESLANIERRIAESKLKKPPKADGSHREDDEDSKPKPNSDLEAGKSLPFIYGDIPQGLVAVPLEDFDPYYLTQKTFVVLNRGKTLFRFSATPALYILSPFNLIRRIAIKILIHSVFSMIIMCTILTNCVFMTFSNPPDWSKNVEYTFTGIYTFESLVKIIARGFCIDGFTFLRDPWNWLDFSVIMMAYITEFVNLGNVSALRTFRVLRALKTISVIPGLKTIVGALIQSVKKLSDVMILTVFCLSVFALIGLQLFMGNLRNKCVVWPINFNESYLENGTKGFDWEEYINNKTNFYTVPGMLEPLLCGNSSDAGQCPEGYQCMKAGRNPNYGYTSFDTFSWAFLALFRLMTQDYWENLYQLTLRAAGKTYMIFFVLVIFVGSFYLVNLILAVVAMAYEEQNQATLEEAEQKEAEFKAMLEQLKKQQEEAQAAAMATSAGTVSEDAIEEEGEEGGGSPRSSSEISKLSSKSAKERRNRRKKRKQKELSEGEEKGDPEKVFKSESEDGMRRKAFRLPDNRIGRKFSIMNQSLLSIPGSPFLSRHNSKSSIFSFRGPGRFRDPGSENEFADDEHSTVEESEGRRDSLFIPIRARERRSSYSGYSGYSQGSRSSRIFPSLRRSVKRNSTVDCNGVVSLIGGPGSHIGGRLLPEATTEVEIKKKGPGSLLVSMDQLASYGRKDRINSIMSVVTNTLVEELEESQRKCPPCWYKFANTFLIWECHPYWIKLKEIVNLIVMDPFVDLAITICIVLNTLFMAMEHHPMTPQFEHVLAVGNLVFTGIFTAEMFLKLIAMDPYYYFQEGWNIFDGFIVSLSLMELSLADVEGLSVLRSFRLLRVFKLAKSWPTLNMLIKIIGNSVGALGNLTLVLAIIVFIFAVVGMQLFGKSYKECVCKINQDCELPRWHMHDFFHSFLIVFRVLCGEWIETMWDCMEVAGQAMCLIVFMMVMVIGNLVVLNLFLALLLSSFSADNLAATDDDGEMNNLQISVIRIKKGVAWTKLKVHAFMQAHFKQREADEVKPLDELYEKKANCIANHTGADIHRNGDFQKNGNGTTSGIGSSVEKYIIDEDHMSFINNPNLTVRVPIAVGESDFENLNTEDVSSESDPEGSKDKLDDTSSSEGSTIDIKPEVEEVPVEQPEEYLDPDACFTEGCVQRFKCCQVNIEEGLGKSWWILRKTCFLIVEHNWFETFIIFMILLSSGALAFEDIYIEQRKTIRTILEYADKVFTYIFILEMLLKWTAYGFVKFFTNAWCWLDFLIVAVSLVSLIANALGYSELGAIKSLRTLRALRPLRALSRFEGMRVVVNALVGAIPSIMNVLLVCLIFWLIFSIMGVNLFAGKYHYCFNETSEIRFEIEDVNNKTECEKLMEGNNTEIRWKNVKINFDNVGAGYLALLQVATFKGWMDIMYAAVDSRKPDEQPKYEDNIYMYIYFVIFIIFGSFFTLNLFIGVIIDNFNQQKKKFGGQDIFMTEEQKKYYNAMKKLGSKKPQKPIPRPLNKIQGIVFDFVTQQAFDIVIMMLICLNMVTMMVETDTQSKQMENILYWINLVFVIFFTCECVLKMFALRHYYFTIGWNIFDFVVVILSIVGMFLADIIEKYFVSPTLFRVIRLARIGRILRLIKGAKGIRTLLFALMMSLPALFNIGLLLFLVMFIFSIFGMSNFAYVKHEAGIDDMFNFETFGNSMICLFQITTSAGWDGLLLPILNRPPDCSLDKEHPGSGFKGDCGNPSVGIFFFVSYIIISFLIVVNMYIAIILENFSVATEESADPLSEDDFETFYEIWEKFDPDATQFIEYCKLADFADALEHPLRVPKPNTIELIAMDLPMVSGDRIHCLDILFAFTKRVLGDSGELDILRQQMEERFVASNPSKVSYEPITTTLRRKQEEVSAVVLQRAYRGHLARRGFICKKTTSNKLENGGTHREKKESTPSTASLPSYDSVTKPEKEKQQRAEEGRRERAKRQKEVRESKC

T1 sequence (Q13224 27-1484, other chains not shown): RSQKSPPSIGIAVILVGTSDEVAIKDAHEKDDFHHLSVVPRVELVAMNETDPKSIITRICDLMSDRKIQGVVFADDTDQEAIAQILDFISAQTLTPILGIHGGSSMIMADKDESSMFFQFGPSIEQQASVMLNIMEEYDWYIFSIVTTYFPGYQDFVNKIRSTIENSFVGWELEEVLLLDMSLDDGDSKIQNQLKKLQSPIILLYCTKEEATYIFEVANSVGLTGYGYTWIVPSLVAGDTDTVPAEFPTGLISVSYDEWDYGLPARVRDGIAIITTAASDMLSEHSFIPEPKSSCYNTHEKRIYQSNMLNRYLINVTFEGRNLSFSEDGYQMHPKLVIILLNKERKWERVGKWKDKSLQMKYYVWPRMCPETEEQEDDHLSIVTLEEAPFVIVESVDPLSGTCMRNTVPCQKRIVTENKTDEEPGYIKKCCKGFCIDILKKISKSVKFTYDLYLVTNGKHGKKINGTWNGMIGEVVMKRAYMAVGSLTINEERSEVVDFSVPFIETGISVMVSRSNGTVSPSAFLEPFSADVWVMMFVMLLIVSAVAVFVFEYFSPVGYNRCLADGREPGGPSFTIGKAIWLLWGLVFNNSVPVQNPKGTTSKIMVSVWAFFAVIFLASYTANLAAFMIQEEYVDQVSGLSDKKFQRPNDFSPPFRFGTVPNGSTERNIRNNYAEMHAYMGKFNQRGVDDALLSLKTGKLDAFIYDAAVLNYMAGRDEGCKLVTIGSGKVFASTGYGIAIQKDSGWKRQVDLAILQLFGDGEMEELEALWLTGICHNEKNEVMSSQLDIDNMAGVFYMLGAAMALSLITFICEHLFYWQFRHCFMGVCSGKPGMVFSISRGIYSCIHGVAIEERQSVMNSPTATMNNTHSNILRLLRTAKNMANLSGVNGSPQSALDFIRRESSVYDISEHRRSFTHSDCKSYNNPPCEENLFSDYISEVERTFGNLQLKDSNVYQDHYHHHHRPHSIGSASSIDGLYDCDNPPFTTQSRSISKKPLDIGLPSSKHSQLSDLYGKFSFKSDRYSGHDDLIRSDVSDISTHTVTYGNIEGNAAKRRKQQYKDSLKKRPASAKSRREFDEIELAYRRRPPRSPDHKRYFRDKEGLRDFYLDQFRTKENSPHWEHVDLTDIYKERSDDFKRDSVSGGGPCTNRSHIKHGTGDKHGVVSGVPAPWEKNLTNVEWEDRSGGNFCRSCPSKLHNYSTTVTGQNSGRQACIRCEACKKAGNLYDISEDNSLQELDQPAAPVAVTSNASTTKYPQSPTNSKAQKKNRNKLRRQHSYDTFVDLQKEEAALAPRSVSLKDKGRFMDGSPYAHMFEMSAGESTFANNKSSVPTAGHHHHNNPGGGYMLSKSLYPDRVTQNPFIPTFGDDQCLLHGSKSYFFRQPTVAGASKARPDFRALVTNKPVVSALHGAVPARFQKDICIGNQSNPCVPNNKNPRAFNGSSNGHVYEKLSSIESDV

`CNC(=O)[C@@H]1CN(Cc2ccc(Oc3ccc(F)cc3)cn2)CCO1` [Example 30]: the 50% inhibitory concentration (IC50) at NMDA NR1/NR2B receptor is 454 nM. Further, at Nav1.6, the inhibition at 1 µM amounted to 7.6% and the inhibition at 5 µM was determined as 6.8%.
In the case of `CNC(=O)[C@@H]1CN(Cc2ccc(Oc3ccccc3Cl)nc2)CCO1` [Example 17], at NMDA NR1/NR2B receptor, the IC50 stood at 188 nM. Besides, at Nav1.6, the inhibition at 1 µM was determined as 22% and the inhibition at 5 µM is -4.3%.
As to `CNC(=O)[C@@H]1CN(Cc2ccc(Oc3ccc(C)cc3)nc2)CCO1` [Example 29], the half-maximal inhibitory concentration (IC50) at NMDA NR1/NR2B receptor was 194 nM. For the same molecule, at Nav1.6, the inhibition at 1 µM turned out to be 1.8% and the inhibition at 5 µM was determined as 3%.
In the case of `CNC(=O)[C@@H]1CN(Cc2ccc(Oc3ccccc3F)nc2)CCO1` [Example 19], the IC50 on NMDA NR1/NR2B receptor stood at 199 nM. For the same molecule, at Nav1.6, the inhibition at 1 µM was 5.2% and the inhibition at 5 µM was -6.3%. At Nav1.6 (at 5 μM), the “significant inhibition of the Nav 1.6 channel (in words)” value was “not showing any significant inhibition”.

What is called IC50 is the concentration that inhibits the measured activity by half. By inhibition is commonly meant the change of the read-out against control, counted positive when it falls.
